Entries after “also recorded” stand apart in the source; their conditions may differ.
What was measured:
PRMT6 = test system: PRMT6; design: method as in PMID 26598975; conditions: cited from earlier work
PRMT1 [1] = molecular target: T1, PRMT1 (Homo sapiens, UniProt Q99873); assay: radioactive PRMT1 methylation inhibition assay ([3H]-SAM, biotinylated histone H4 peptide); type: biochemical
Method: A series of 1,5-substituded tetrazole derivatives were synthesized to investigate the structure-activity relationship (SAR) of PRMT1 inhibitors (Table 1). […] The chemical modification of these compounds is mainly focused on the substituted benzene ring. The initial screening of these compounds was carried out using the radioactive PRMT1 methylation inhibition assay, which measured the amount of methyl groups that transferred from [^3H]-SAM to a biotinylated histone H4 peptide (ac- […](Biotin)). […] In the second step, the Group II compounds were designed and synthesized by extending the ethylenediamine side chain to propylenediamine.
(§1) The enzyme inhibitory activities were measured by the radioisotope assay in ShangHai Chempartner Co. Ltd. according to the standard protocol. The similar procedure was recently performed in the publication The radioactive methylation assay was performed in 1× assay buffer (modified Tris buffer) system containing enzyme (PRMT1/5), peptide and [^3H]-SAM solution and compounds on the assay plate. […] Afterwards, the reaction was stopped with addition of 5 μL cold SAM solution to per well. Then, 25 μL of volume per well was transferred to Flashplate from assay plate and incubated for 1 h minimum at room temperature. Finally, the Flashplate was washed with dH2O and 0.1% Tween-20 three times and then reading plate in Mi crobeta using program ^3H-Flashplate. The data was analyzed in GraphPad Prism 5 to obtain IC50 values.

PRMT5 = PRMT5 (Homo sapiens, UniProt O14744); assay: radioactive methylation assay, PRMT5 selectivity; type: biochemical
Sequence of PRMT5 (O14744 whole entry, species assumed): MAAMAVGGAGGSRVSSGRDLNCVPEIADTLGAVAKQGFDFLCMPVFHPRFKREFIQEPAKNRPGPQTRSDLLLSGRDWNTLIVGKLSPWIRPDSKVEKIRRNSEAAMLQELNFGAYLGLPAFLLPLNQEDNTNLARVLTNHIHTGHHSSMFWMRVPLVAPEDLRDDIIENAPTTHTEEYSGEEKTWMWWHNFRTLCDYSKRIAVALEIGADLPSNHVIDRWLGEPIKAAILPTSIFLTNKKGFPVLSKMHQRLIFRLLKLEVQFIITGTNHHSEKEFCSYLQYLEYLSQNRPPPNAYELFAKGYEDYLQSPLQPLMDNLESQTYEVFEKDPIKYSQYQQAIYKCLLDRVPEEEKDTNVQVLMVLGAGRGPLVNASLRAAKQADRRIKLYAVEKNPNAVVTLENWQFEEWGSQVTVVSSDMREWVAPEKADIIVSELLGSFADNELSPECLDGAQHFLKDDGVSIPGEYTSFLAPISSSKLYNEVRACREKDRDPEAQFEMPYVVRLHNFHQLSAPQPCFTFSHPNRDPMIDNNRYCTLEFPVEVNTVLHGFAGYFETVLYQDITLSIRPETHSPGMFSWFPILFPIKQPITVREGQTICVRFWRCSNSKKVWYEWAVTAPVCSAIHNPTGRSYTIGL
Sequence of PRMT5 (Q9BQA1 whole entry partner, species assumed): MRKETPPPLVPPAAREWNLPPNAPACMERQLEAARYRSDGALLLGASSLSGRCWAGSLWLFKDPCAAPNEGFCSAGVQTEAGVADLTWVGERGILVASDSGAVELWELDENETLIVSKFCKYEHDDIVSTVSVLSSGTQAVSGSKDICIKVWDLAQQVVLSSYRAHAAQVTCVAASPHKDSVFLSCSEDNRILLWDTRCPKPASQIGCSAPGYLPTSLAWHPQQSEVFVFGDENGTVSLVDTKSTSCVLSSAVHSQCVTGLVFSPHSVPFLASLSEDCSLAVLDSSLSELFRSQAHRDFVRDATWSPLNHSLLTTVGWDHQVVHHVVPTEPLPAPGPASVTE
Method: as §1

PRMT1 [2] = molecular target: T1, PRMT1; assay: Mechanism of Action (MOA) study, competition with SAM and peptide on PRMT1; type: biochemical; conditions: IC50 at varied SAM (0.5-60× Km) or peptide (0.5-100× Km) concentrations
Source text: Both PRMT1 and PRMT6 are Type I PRMTs, and their structures share the high degree similarity. […] Based on the crystal structure, it can be predicated that MS023 should be a competitive inhibitor against the peptide. […] There are potential explanations for the current contradictory results. First, the main binding effects of the substrate were from the outside regions of arginine-binding site.
The method is consistent with the procedure described above.

[3] = WST-8/CCK8 cell viability assay; type: cell-based; conditions: human, MDA-MB-231 breast cancer cells, read-out: IC50 against MDA-MB-231 (cytotoxicity)
Method: The MDA-MB-231 cell line used in this study was obtained from the American Type Culture Collection (ATCC, Rockville, MD, USA), and was grown in dulbecco’s modified eagle medium (DMEM, Gibco, Thermo Fisher Scientific, Waltham, MA, USA) supplemented with 10% fetal bovine serum (FBS) (Gibco). The cells were incubated at 37 °C and 5% CO2.
The cytotoxicity was determined by the CCK8 assay. Briefly, MDA-MB-231 cells (5 × 10^3 cells/well) were seeded in 96-well plates in DMEM containing 10% FBS and grew for 24 h. The exponentially growing cells were incubated with various concentrations of compounds for 48h/72h in serum free DMEM at 37 °C (5% CO2, 95% humidity). CCK8 reagent (10 μL) was added to each well and incubated for further 2 h, and then the absorbance was analyzed in a multiwell-plate reader (BioTek ELx800) at 450 nm.

MDA-MB-231 cells = assay: Western blotting of PRMT1 and Wnt pathway markers; type: cell-based
Method: MDA-MB-231 cells were maintained on 6-well plates at the appropriate density. […] Total cell lysates were separated by SDS-PAGE and transferred onto nitrocellulose membranes. The blots were blocked with 5% nonfat milk for 30 min and the target proteins were probed with appropriate specific antibody overnight at 4 °C, respectively. The blots were washed with TBST for three times and then incubated with anti-rabbit secondary antibody (HRP conjugated) for 1 h. After another three washes, bands were detected in a ChemiScope3400 imaging system using ECL substrate (Millipore, Burlington, MS, USA). Primary antibodies used were as follows: anti-PRMT1 (Cell Signaling Technology no.2449, Danvers, MA, USA), anti-ADMA (Cell Signaling Technology no.13522), anti-SDMA (Cell Signaling Technology no.13222), anti-GAPDH (Cell Signaling Technology no. 5174), anti-H4R3me2a Abcam, ab9231), Wnt3a (Cell Signaling Technology no. 2721s), anti-DDAH (Abcam, ab9231, Cambridge, UK), Wnt5a/b (Cell Signaling Technology no. 2530s), β-catenin (Cell Signaling Technology no. 8480s), MMP9 (Cell Signaling Technology no.1366s). The results were obtained from multiple membranes. No significant differences were observed among loading controls. Therefore, we presented the representative loading control blot image in the figure.

[4] = MDA-MB-231, 48 h, top concentration 200 μM

T1 sequence (Q99873 whole entry): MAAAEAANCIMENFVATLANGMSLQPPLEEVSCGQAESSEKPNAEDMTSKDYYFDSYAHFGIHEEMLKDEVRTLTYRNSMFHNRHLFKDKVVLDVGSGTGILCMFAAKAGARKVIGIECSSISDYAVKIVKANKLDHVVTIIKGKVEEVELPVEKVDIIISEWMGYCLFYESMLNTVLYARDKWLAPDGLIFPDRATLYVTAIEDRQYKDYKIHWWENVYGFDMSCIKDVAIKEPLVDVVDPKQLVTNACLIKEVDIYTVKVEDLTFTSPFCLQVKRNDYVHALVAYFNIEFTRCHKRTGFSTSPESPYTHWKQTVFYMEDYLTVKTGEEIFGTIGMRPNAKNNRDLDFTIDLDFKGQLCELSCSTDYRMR

Compound | mode of inhibition with respect to SAM and peptide substrate (PRMT6) | IC50 (PRMT1 [1]) | inhibition at 10 µM (PRMT1 [1]; 10 μM compound, initial screening) | IC50 (PRMT5) | mode of inhibition with respect to SAM and peptide substrate (PRMT1 [2]) | IC50 at 48 h ([3]; 48 h) | IC50 at 72 h ([3]; 72 h) | global level of ADMA (MDA-MB-231 cells; [4]) | global level of H4R3me2as (MDA-MB-231 cells; [4]) | global level of SDMA (MDA-MB-231 cells; [4]) | level of DDAH (MDA-MB-231 cells; [4]) | level of Wnt3a (MDA-MB-231 cells; [4]) | level of Wnt5a (MDA-MB-231 cells; [4]) | level of β-catenin (MDA-MB-231 cells; [4]) | cell damage during the western blotting experiment (MDA-MB-231 cells; MDA-MB-231, top concentration 200 μM)
CC(C)Oc1ccc(-c2c[nH]cc2CN(C)CCN)cc1 [MS023] | noncompetitive with either SAM or peptide substrate | – | – | – | – | – | – | – | – | – | – | – | – | – | –
CNCCN(C)Cc1nnnn1-c1ccc(OC(C)C)cc1.Cl [9a, N,N’-Dimethyl-N’-(1-(4-isopropoxyphenyl)-1H-tetrazol-5-yl-methyl)ethylenediamine hydrochloride] | – | 3.5 µM | > 47% | > 100 µM | noncompetitive inhibitor for either the cofactor SAM or peptide substrate; also recorded: non-competitive pattern with respect to either SAM or substrate arginine; also recorded: did not compete with either SAM or peptides | > 500 µM | 541 ± 6.5 µM | significantly decreased in a concentration-dependent manner; also recorded: significantly decreased in concentration-dependent manners | decreased the global level of H4R3me2as in a concentration-dependent manner; also recorded: significantly decreased in concentration-dependent manners | not significantly affected; also recorded: not significantly changed | significantly decreased in a concentration-dependent manner; also recorded: significantly decreased in concentration-dependent manners | significantly decreased in concentration-dependent manners | did not change significantly; also recorded: not changed | significantly decreased in concentration-dependent manners | no obvious cell damage was observed
